In patent US20230233566A1, “INHIBITION OF BMI1 ELIMINATES CANCER STEM CELLS AND ACTIVATES ANTITUMOR IMMUNITY” (The Regents of the University of California, priority 2020, published 2023):

What was measured:
CD8+ T cells [1] = experiment: Immunostaining of CD8+ T cells in HNSCC; assay type: in vivo, mouse; conditions: 4NQO-induced HNSCC, treated 4 weeks
Procedure: The immunocomplexes were detected and visualized using related secondary antibodies conjugated with Cy2 or Cy3 (Jackson ImmunoResearch Laboratories). […] At least three sections from each HNSCC lesions were immunostained and analyzed. Tumor cells (>150) and CD8+, Ac-casp3+ and Tomato^+ cells of these tumor cell areas were counted manually in each section. The percentage of CD8+, Ac-casp3^+ and Tomato^+ cells were calculated by dividing those cells with tumor cells and averaged from the sections.

CD8+ T cells [2] = experiment: Flow cytometry of T cells in lymph nodes, blood and spleen; assay type: in vivo, mouse; conditions: blood and spleen of 4NQO-induced HNSCC mice
From the text: PBMCs were isolated from blood using Ficoll-Paque Plus density gradient centrifugation (GE Healthcare Life Sciences, Cat #17-1440). Cervical lymph nodes and spleens were collected and processed into single-cell suspensions through mechanical separation. The isolated or dissociated cells were stained with the specific surface marker antibodies, anti-CD3-FITC (eBioscience, Cat #11-0031), anti-CD4-APC (eBioscience, Cat #17-0041), and anti-CD8-PerCP-Cy5.5 (eBioscience, Cat #45-0081) in PBS with FBS for 30 min at 4° C. Intracellular staining of IFNγ was performed as follows: cells were stimulated with PMA and ionomysin cocktail (eBioscience, Cat #00-4970) for 5 h at 37° C. with 5% CO2. Cells were washed and stained with surface marker antibodies, then fixed and permeabilized with a fixation/permeabilization kit (BD Bioscience, Cat #554715) and intracellularly stained with anti-IFNγ-PE (eBioscience, Cat #12-7311). For proper compensation of flow cytometry channels, single-stain samples were utilized, and for gating, isotype controls were applied. The stained cells were analyzed on the BD FACS flow cytometer, and data analyzed using Flowjo software.

[3] = tested on: CCL5, CXCL9, CXCL10, and CXCL11; experiment: qRT-PCR and ELISA of CCL5, CXCL9, CXCL10, CXCL11 in SCC cells; assay type: cell-based, human; conditions: SCC1 and SCC23 cells
Procedure: (§1) For qRT-PCR, total RNA was prepared using TRIzol reagent (Thermo Fisher Scientific Cat #15596026), and 1 μg of RNA was reversely transcribed with random primer (Thermo Fisher Scientific Cat #48190011), dNTP mix (Thermo Fisher Scientific, Cat #18427013), and M-MuLV Reverse Transcriptase (New England Biolabs, Cat #M0253L). The levels of mRNA were […] measured using a SYBRGreen supermix (Bio-Rad, Cat #1708880). GAPDH was used as an internal control.
Cells were lysed using the radioimmunoprecipitation assay (RIPA) buffer (Sigma-Aldrich, Cat #R0278) added with a cocktail of protease inhibitors (Thermo Fisher Scientific, Cat ##78430) and phosphatase inhibitors (Sigma-Aldrich, Cat #4906845001). Protein extracts were resolved on a 10% or 15% SDS polyacrylamide gel and then transferred to a polyvinylidene difluoride membrane. Membranes were blocked with 5% milk for 1 h and incubated with primary antibodies overnight at 4° C. […] The signals were detected using the Clarity Western ECL kit (Bio-Rad, Cat #1705060). […] After treatment, supernatants were collected, and the protein levels of CCL5, CXCL9, CXCL10 and CXCL11 were measured with ELISA (R&D Systems, Cat #DRN00B, DCX900, DIP100, DCX110) according to the manufacturer's instructions.

pH2A.X [4] = experiment: DNA damage in SCC23 and SCC1 cells (pH2A.X, alkaline comet assay); assay type: cell-based, human
Procedure: Cells were lysed using the radioimmunoprecipitation assay (RIPA) buffer (Sigma-Aldrich, Cat #R0278) added with a cocktail of protease inhibitors (Thermo Fisher Scientific, Cat ##78430) and phosphatase inhibitors (Sigma-Aldrich, Cat #4906845001). Protein extracts were resolved on a 10% or 15% SDS polyacrylamide gel and then transferred to a polyvinylidene difluoride membrane. Membranes were blocked with 5% milk for 1 h and incubated with primary antibodies overnight at 4° C. Primary antibodies used in this study were: anti-phospho-STING (Ser366) (1:1,000; Cell Signaling Technology, Cat #19781), anti-STING (1:1,000; Cell Signaling Technology, Cat #13647), anti-phospho-TBK1 (Ser172) (1:1,000; Cell Signaling Technology, Cat #5483), anti-TBK1 (1:1,000; Cell Signaling Technology, Cat #3504), anti-phospho-IRF3 (Ser396) (1:1,000; Cell Signaling Technology, Cat #29047), anti-IRF3 (1:1,000; Cell Signaling Technology, Cat #4302), anti-BMI1 (1:1,000; Cell Signaling Technology, Cat #6964), anti-Ubiquityl-Histone H2A (Lys119) (1:1000, Cell Signaling Technology, Cat #8240), anti-phospho Histone H2A.X (Ser139) (1:1000; Cell Signaling Technology, Cat #9718), and anti-GAPDH (1:1000; Cell Signaling Technology, Cat #5174), anti-Histone H3 (1:2,000; Cell Signaling Technology, Cat #4499). The signals were detected using the Clarity Western ECL kit (Bio-Rad, Cat #1705060). To measure the protein levels of CCL5, CXCL9, CXCL10 and CXCL11, cells were treated with PTC209 or shBMI1 knockdown for 48 hr. After treatment, supernatants were collected, and the protein levels of CCL5, CXCL9, CXCL10 and CXCL11 were measured with ELISA (R&D Systems, Cat #DRN00B, DCX900, DIP100, DCX110) according to the manufacturer's instructions.
Single cell gel electrophoresis comet assays were performed using the SCGE assay Kit (Enzo Life Sciences, Cat #ADI-900-166). Following the treatment, cells were mixed with low melting point agarose at a volume ratio of 1:50, and 100 μl of aliquots were loaded onto pre-warmed slides. Slides were incubated in pre-chilled lysis solution for 1 h and then in pre-chilled alkaline solution for 1 h. Electrophoresis was run at 22 V in the TBE buffer for 30 min. Comets were stained with CYGREEN dye for 30 min and imaged. 50 individual cells at least per sample were evaluated in duplicates by the CASP Version 1.2.2 analysis tool.

pH2A.X [5] = experiment: pH2A.X immunofluorescent staining in 4NQO-induced HNSCC; parameters: species or system mouse; conditions: 4NQO-induced HNSCC in vivo
IFNβ = experiment: qRT-PCR of IFNβ mRNA; assay type: cell-based, human; conditions: SCC23 cells
Procedure: as §1

B16 melanoma = assay type: in vivo, mouse; conditions: B16 tumors in immunocompetent mice
Procedure: C57/6J mice were injected in the flank subcutaneously with B16 melanoma cells (250,000 cells per site). Tumors were measured every 3 days once palpable (long diameter and short diameter) with a caliper. Tumor volume was determined using the volume formula for an ellipsoid: ½×D×d^2 where D is the longer diameter and d is the shorter diameter. Mice were sacrificed when tumors reached 1000 mm^3 or upon ulceration/bleeding.

SCC23 cells = experiment: qRT-PCR of ATM, DNA-PKcs, MRE11, JUN, FOSL1, MMP3, MMP9 in SCC23 cells; assay type: cell-based, human
Procedure: as §1

[6] = tested on: neutrophils and MDSCs (Gr1+CD11b+ cells); experiment: Immunofluorescent staining of neutrophils and MDSCs in HNSCC; assay type: in vivo, mouse; conditions: 4NQO-induced HNSCC
BMI-1 = conditions: HEK293T cell line; cited from earlier work
[7] = tested on: CSCs isolated from human colorectal cancers; conditions: cited from earlier work
xenografted HNSCC = conditions: human tumor cells in immunodeficient mice; cited from earlier work

## COc1cc(Br)c(Nc2nc(-c3c(C)nc4ncccn34)cs2)c(Br)c1 [PTC209, N-(2,6-dibromo-4-methoxyphenyl)-4-(2-methylimidazo[1,2-a]pyrimidin-3-yl)thiazol-2-amine]
CD8+ T cells [1]
  CD8+ T cell infiltration in HNSCC: could induce CD8+ T cell infiltration in tumors
CD8+ T cells [2]
  percentage of CD8+ T cells and IFNγ-produced CD8+ T cells: no significant alteration in the percentage of CD8+ T cells and IFNγ-produced CD8+ T cells
[3]
  expression of CCL5, CXCL9, CXCL10, and CXCL11: significantly increased the expression of CCL5, CXCL9, CXCL10, and CXCL11 in both SCC1 and SCC23 cells
pH2A.X [4]; alkaline comet assay
  Olive tail moment: significantly increased the Olive tail moment in SCC23 and SCC1 cells
pH2A.X [4]; immunostaining and Western blot
  pH2A.X: increased pH2A.X in SCC23 and SCC1 cells
pH2A.X [5]
  pH2A.X in HNSCC: significantly increased
IFNβ
  IFNβ mRNA expression: induction of IFNβ mRNA expression in SCC23 cells
B16 melanoma
  melanoma resistance to anti-PD1: overcomes melanoma resistance to anti-PD1 by recruiting CD8+ T cells
SCC23 cells
  ATM, DNA-PKcs, and MRE11 mRNA expression: does not affect the expression of ATM, DNA-PKcs, and MRE11
  JUN, FOSL1, MMP3, and MMP9 mRNA expression: does not change the expression of JUN, FOSL1, MMP3, and MMP9 significantly
[6]
  percentage of neutrophils and MDSCs (Gr1+CD11b+ cells) in HNSCC: does not significantly change the percentage of neutrophils and MDSCs (Gr1^+CD11b^+ cells) in HNSCC
BMI-1
  IC50: 500 nM
[7]; mouse xenograft models
  colorectal tumor growth and frequency of CSCs: inhibited colorectal tumor growth and reduced the frequency of CSCs in mouse xenograft models
[7]; xenografted nude mouse model
  self-renewal of CSCs: abolish the self-renewal of CSCs isolated from human colorectal cancers
Xenografted HNSCC
  xenografted HNSCC growth: inhibit xenografted HNSCC growth
